The source of these data is patent publication US4182896A, “Indane derivatives” (Societe Hexachimie, priority 1974, dated 1980).

The nature of data set [1]: Solubility in water. Format: physicochemical. The settings on record: white powder, sodium salt.
For data set [2], the system named is SPF male rats, OFA strain. Nature of the data set: Anti-inflammatory activity: paw swelling after subcutaneous plantar injection of carraghenine, oral administration. Format: in vivo. The settings on record: Rattus norvegicus, po. The method, boiled down:
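Oral dosing to SPF male OFA rats (120–130 g, 12 per batch), given as two half-doses at 2 h and 30 min before subplantar injection of 0.05 ml 1% carraghenine. Hind-paw volume was measured at intervals, and ED50 was calculated at the time of peak swelling in controls.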

The test system of data set [3] is male mice (SPF1, OF1 strain). The data set can be described thus: Analgesic activity: inhibition of pain reactions (abdominal twistings) after intraperitoneal phenylbenzoquinone, oral administration. Type of data set: in vivo. The following applies: Mus musculus, po. The protocol: The products tested are administered orally to batches of 6 male mice (SPF1, OF1 strain) weighing 19-20 g.
1 hour later, 0.3 ml of a 0.02% strength solution of phenylbenzoquinone is injected intraperitoneally into each mouse and, from the 5th to the 10th minute after the latter treatment, the number of pain reactions (abdominal twistings) is counted.
Table V to VIII below give the percentage inhibition of these reactions.

Counter-ions that a name gives are not always drawn.

As to `CC1CC(C)c2cc(C(C)C(=O)O)ccc21` (centres unmarked) [Example 6, Sodium salt of 2-methyl-[1,3-dimethyl-indanyl-(5)]-acetic acid], the solubility in water result in data set [1] is listed as “soluble in water”. In addition, the inhibition in vivo at 64 mg/kg in data set [2] (64 mg/kg oral, carraghenine, read-out: percentage reduction in the inflammation) was 16%; in data set [3] (64 mg/kg oral, read-out: percentage inhibition of pain reactions), 59%. The inhibition in vivo at 128 mg/kg in data set [2] (128 mg/kg oral, carraghenine, read-out: percentage reduction in the inflammation) came out at 39%; in data set [3] (128 mg/kg oral, read-out: percentage inhibition of pain reactions), 78%. Further, the inhibition in vivo at 256 mg/kg in data set [2] (256 mg/kg oral, carraghenine, read-out: percentage reduction in the inflammation) was 44%; in data set [3] (256 mg/kg oral, read-out: percentage inhibition of pain reactions), 72%. Further, the 50% effective dose (ED50) – broadly, the dose that gives a 50% effect, or the effect in half of the subjects – in data set [2] (at the moment of greatest swelling of the controls, read-out: ED50 (50% effective dose), anti-inflammatory) was more than 256 mg/kg; in data set [3] (read-out: ED50 (50% effective dose), analgesic) it was 40 mg/kg. Moreover, the inhibition in vivo at 16 mg/kg in data set [3] (16 mg/kg oral, read-out: percentage inhibition of pain reactions) was found to be 28%. The inhibition in vivo at 32 mg/kg in data set [3] (32 mg/kg oral, read-out: percentage inhibition of pain reactions) amounted to 41%.
